Assay results taken from patent publication US20230055961A1, “PENTAFLUOROBENZENESULFONAMIDE DERIVATIVES AND USES THEREOF” (Dunad Therapeutics Ltd., priority 2019, published 2023).
pIC50: −log10 of the molar value. Read-outs that look alike come from different tables or passages of the source. Blank lines part the entries; values can stand above or below the compound they belong to.

Tests used:
[1] = target: T1, JAK3 (Homo sapiens, UniProt P52333); assay: In vitro JAK3 inhibition, biochemical IC50 (no preincubation); details: Table 8
T1 sequence (P52333 1-1124): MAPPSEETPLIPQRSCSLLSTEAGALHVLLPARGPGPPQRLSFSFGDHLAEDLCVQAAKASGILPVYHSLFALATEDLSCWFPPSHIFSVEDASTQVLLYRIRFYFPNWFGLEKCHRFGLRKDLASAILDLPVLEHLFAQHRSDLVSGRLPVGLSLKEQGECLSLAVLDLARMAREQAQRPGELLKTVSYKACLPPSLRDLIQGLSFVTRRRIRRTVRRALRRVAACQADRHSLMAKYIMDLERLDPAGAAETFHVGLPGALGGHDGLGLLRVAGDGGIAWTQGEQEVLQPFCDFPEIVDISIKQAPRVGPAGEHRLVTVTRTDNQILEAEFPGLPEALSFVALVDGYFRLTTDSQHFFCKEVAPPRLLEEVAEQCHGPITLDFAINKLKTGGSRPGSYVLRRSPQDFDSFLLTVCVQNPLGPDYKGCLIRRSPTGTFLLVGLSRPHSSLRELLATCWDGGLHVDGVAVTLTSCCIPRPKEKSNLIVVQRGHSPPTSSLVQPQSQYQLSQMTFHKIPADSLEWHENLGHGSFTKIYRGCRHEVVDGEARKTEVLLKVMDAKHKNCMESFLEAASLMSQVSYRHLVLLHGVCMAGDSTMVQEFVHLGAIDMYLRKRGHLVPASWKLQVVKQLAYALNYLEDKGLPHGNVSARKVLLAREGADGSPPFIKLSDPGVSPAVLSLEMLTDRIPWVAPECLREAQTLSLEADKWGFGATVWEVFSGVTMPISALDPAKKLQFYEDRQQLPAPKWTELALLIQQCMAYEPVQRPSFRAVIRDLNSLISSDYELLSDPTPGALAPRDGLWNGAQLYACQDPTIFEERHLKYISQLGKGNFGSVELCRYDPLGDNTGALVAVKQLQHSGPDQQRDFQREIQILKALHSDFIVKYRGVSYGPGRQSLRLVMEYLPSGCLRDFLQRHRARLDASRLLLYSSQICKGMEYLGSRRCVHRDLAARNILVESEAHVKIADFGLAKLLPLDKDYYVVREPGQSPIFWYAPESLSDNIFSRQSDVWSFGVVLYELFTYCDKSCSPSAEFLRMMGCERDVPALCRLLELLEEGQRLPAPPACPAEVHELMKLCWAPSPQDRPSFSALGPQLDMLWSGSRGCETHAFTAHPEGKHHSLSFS
Method: (§1) In vitro BTK and JAK3 inhibition studies are shown in Table 7 and Table 8 (no preincubation).

[2] = target: T2, BTK (Homo sapiens, UniProt Q06187); assay: In vitro BTK inhibition, biochemical IC50 (no preincubation)
Method: IC50 Values (nM) for the Inhibition of BTK Activity
as §1

[3] = test system: K562; assay: In vitro IC50 against human cancer cells (Table 11), K562; assay type: cell-based; details: read-out: Human cancer cell lines (IC50, μM) K562
[4] = test system: MV-4-11; assay: In vitro IC50 against human cancer cells (Table 11), MV-4-11; assay type: cell-based; details: MV4-11, read-out: Human cancer cell lines (IC50, μM) MV-4-11
[5] = test system: MOLM-13; assay: In vitro IC50 against human cancer cells (Table 11), MOLM-13; assay type: cell-based; details: read-out: Human cancer cell lines (IC50, μM) MOLM-13
[6] = test system: tubulin; assay: In vitro % inhibition of tubulin polymerization (Table 12; absorbance at 340 nm, Vmax); assay type: biochemical
Method: A 96-well half-area clear flat-bottom microplate (Corning© #3697) is pre-heated in a plate reader (Cytation 3, BioTek) at 37° C. for 15 minutes prior to the start of each assay. Kinase buffer (80 mM PIPES pH 6.9, 2 mM MgCl2, 0.5 mM EGTA, 15% glycerol, 1 mM GTP) is prepared from stock solutions and placed on ice. Inhibitors of this application are prepared to 10 μM concentrations in buffer (80 mM PIPES pH 6.9, 2 mM MgCl2, 0.5 mM EGTA, 5% DMSO) from DMSO stock solutions. After the assay plate is pre-warmed, 10 μL of inhibitor or buffer control is added to selected wells. Every assay contained a kinase only negative control for normalization of data, and a known compound positive control. The assay plate is incubated at 37° C. for 3 minutes. During this time, a frozen aliquot of the kinase (10 mg/mL) in buffer (80 mM PIPES pH 6.9, 2 mM MgCl2, 0.5 mM EGTA) is defrosted by placing in a room temperature water bath. Once thawed, 200 μL of the kinase is mixed with 420 μL of the ice-cold kinase buffer (3 mg/mL kinase in 80 mM PIPES, pH 6.9, 2 mM MgCl2, 0.5 mM EGTA, 1 mM GTP, 10.2% glycerol). To a 96-well plate on ice, aliquots of 100 μL kinase is added to each well. From this plate, 90 μL of the kinase is immediately pipetted into all sample wells of the warmed assay plate using a multi-channel pipette. The assay plate is immediately put in the reader at 37° C. and shook for 5 s with orbital shaking at medium speed. The reader records the absorbance at 340 nm every 15 s for 30 min.
The resulting absorbance curves are normalized by subtracting each data point by the absorbance at time 0.

[7] = target: T2, BTK; assay: BTK washout experiment (residual activity after 400-fold dilution); assay type: biochemical; details: 6-h incubation of 50 nM BTK with 177 nM compound, relative to DMSO alone
Method: After a 3-h incubation of 40 nM BTK in the presence of 296 nM of compound Compound 5-1, a 400-fold dilution was performed to remove excess inhibitor.
By way of contrast, a “washout” experiment performed with ARQ-531 gives a very different result, because this compound lacks a warhead and is known to inhibit BTK reversibly. After a 6-h incubation of 50 nM BTK in the presence of 177 nM of ARQ-531, a 400-fold dilution was performed to remove excess inhibitor. […] This indicates to one of ordinary skill in the art that the enzyme was not inhibited irreversibly during the incubation with ARQ-531.

[8] = target: FGFR1 (Homo sapiens, UniProt P11362); assay: In vitro kinase inhibition studies (Table 9), FGFR1; assay type: biochemical
[9] = target: FGFR4 (Homo sapiens, UniProt P22455); assay: In vitro kinase inhibition studies (Table 9), FGFR4; assay type: biochemical
[10] = target: T2, BTK; assay: Total BTK degradation assay (Total BTK-HTRF) in RAMOS cells; assay type: cell-based
Method: A Total BTK-HTRF assay (Cisbio Total BTK cat #63ADK064PEG) was performed to quantitate the ability of test compounds to degrade BTK protein levels in RAMOS cells. This total protein assay monitors the steady state protein level in a sandwich assay format using two different specific antibodies after lysis of the cell-membrane. The antibodies recognise two different epitopes on BTK and are labelled with Eu3^+-cryptate (donor) and d2 (acceptor). […] The specific signal modulates positively in proportion to the total concentration of BTK.
In order to evaluate the degradation of BTK by test compounds, a total BTK degradation assay was performed (Cisbio Total BTK cat #63ADK064PEG). The frozen stock solutions of the two different BTK antibodies were diluted 20-fold with the detection buffer and pre-mixed before use in the assay. Supplemented lysis buffer (4×) was prepared by diluting the blocking reagent solution 25-fold with lysis buffer (4×) and mixing gently.
were plated at a density of 50K cells/well (8 uL) in RPMI medium with 10% FBS into 384-well white detection plates. […] The plate was read on an Biotek Synergy Neo2 plate reader using 330 nm excitation, 620 nm-donor emission and 670 nm-acceptor emission.

[11] = test system: normal pooled human fibroblasts; assay: IC50 of Ibrutinib analogs against normal human cells, pooled human fibroblasts (Table 14); assay type: cell-based; details: Fibroblast, TABLE 9
Method: Anti-cancer efficacy of exemplary compounds of this application is assessed in vitro in different cancer cell lines. Cell viability is examined following treatment at various concentration of inhibitor (0.097656-50 μM) using a cell Titer-Blue cell viability assay. 1×10^4 cells (NHF cells)/well are plated in 96-well assay plates in culture medium. All cells are grown in DMEM, IMDM and RPMI-1640 supplemented with 10% FBS. After 24 hrs, test compounds and vehicle controls are added to appropriate wells so the final volume is […] in each well. The cells are cultured for the desired test exposure period (72 hrs) at 37° C. and 5% CO2. The assay plates are removed from 37° C. incubator and 20 μl/well of CellTiter-Blue® Reagent is added. The plates are incubated using standard cell culture conditions for 1-4 hours and the plates are shaken for 10 seconds and record fluorescence at 560/590 nm.
Therapeutic index=(IC50 human fibroblasts/IC50 RLcells)

[12] = test system: RL cells; assay: IC50 of Ibrutinib analogs against human cancer cells, RL cells (Table 14); assay type: cell-based; details: Homo sapiens, RL
Method: 1×10^4 cells (NHF cells)/well are plated in 96-well assay plates in culture medium. […] After 24 hrs, test compounds and vehicle controls are added to appropriate wells so the final volume is 100p in each well. The cells are cultured for the desired test exposure period (72 hrs) at 37° C. and 5% CO2. The assay plates are removed from 37° C. incubator and 20 μl/well of CellTiter-Blue® Reagent is added. The plates are incubated using standard cell culture conditions for 1-4 hours and the plates are shaken for 10 seconds and record fluorescence at 560/590 nm. […] Therapeutic index=(IC50 human fibroblasts/IC50 […] )

T2 sequence (Q06187 whole entry, species assumed): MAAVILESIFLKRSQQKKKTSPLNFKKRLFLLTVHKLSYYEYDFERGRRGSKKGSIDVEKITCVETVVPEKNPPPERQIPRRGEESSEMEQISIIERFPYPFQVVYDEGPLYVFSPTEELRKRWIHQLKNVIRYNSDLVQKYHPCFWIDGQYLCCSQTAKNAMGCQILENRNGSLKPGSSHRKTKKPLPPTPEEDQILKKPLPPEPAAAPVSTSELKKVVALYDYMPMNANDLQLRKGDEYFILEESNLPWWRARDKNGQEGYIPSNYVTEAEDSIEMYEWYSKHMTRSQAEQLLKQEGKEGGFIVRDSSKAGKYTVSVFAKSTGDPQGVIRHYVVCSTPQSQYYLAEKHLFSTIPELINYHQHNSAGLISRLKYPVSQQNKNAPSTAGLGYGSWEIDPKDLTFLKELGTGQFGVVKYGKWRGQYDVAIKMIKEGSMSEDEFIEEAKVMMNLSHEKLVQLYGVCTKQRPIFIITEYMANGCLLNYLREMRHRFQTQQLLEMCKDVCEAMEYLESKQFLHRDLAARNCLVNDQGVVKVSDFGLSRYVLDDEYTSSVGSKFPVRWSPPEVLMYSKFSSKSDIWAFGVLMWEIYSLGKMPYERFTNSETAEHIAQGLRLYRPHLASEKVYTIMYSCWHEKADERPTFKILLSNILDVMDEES
Chain of FGFR1 (P11362 22-822, species assumed): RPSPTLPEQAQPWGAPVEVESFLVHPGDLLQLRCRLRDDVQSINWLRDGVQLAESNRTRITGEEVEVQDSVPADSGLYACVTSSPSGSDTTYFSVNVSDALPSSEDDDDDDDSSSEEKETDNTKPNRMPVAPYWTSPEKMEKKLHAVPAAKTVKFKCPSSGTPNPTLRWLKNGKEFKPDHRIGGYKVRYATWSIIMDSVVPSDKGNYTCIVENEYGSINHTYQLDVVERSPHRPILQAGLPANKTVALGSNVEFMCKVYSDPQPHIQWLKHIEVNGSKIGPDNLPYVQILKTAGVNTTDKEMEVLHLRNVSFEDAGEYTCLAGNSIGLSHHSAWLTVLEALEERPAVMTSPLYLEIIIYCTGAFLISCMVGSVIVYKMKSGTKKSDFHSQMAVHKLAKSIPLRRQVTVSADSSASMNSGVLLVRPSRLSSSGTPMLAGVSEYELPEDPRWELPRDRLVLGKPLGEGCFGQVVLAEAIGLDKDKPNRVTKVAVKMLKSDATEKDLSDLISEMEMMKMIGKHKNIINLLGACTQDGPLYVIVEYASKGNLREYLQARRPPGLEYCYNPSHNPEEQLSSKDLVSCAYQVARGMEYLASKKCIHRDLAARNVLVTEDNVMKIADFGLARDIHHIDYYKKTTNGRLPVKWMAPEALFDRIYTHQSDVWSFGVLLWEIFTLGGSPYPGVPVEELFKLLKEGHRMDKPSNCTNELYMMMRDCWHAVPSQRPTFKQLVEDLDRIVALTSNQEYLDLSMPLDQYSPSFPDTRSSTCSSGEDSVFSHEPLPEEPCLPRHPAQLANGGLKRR
Chain of FGFR4 (P22455 22-802, species assumed): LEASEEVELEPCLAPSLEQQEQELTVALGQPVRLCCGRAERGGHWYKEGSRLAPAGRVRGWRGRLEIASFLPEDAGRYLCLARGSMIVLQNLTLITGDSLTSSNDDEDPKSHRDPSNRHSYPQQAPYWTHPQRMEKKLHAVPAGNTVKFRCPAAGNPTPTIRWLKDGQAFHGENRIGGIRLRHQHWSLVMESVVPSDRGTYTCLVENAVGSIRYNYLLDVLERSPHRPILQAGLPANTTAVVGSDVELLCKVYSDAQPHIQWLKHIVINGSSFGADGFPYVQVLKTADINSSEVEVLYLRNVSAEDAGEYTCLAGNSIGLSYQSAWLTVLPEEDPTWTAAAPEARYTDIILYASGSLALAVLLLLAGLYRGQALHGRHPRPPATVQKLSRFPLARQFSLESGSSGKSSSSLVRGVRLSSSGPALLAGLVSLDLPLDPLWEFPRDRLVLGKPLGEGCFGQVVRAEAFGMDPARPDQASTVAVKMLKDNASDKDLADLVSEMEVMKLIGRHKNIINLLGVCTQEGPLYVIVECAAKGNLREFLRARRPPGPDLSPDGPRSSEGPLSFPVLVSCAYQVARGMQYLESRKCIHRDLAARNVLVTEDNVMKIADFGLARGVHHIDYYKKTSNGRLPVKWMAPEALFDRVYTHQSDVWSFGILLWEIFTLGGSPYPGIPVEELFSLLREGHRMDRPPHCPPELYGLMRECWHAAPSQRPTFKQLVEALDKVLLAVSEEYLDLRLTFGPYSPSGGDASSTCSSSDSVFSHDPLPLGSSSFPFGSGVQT

SMILES: O=S(=O)(Nc1ccc(OC(F)(F)F)c(F)c1)c1c(F)c(F)c(F)c(F)c1F [Compound 4-1, 2,3,4,5,6-pentafluoro-N-(3-fluoro-4-(trifluoromethoxy)phenyl)benzenesulfonamide]
- IC50 [3]: 10 to 100 µM
- IC50 [4]: 10 to 100 µM
- IC50 [5]: 10 to 100 µM
- % inhibition of tubulin polymerization [6]: B (B: 10-20%)

SMILES: COc1ccc(NS(=O)(=O)c2c(F)c(F)c(F)c(F)c2F)cc1F [Batabulin]
- IC50 [3]: ≤ 0.1 µM
- IC50 [4]: ≤ 0.1 µM
- IC50 [5]: ≤ 0.1 µM
- % inhibition of tubulin polymerization [6]: C (C > 20%)

SMILES: O=S(=O)(Nc1ccc(O)c(F)c1)c1c(F)c(F)c(F)c(F)c1F [Compound 4-3, 2,3,4,5,6-pentafluoro-N-(3-fluoro-4-hydroxyphenyl)benzenesulfonamide]
- IC50 [4]: 0.1 to 10 µM
- % inhibition of tubulin polymerization [6]: A (A: < 10%)

SMILES: O=S(=O)(Nc1ccc(OCF)c(F)c1)c1c(F)c(F)c(F)c(F)c1F [Compound 4-6, 2,3,4,5,6-pentafluoro-N-(3-fluoro-4-(fluoromethoxy)phenyl)benzenesulfonamide]
- IC50 [3]: 0.1 to 10 µM
- IC50 [4]: 0.1 to 10 µM
- IC50 [5]: 0.1 to 10 µM
- % inhibition of tubulin polymerization [6]: B (B: 10-20%)

SMILES: COc1ccc(N(C)S(=O)(=O)c2c(F)c(F)c(F)c(F)c2F)cc1F [Compound 4-12, 2,3,4,5,6-pentafluoro-N-(3-fluoro-4-methoxyphenyl)-N-methylbenzenesulfonamide]
- IC50 [3]: 0.1 to 10 µM

SMILES: O=S(=O)(Nc1ccc(OC(F)F)c(F)c1)c1c(F)c(F)c(F)c(F)c1F [Compound 4-4, N-(4-(difluoromethoxy)-3-fluorophenyl)-2,3,4,5,6-pentafluorobenzenesulfonamide]
- IC50 [4]: 0.1 to 10 µM
- IC50 [5]: 0.1 to 10 µM
- % inhibition of tubulin polymerization [6]: B (B: 10-20%)

SMILES: C=CC(=O)N1CCC[C@@H](n2nc(-c3ccc(Oc4ccccc4)cc3)c3c(N)ncnc32)C1 [Ibrutinib, reference compound]
- pIC50 [11]: 4.57
- pIC50 ([12]; RL cells, read-out: IC50 in RL cells): 4.99
- pIC50 ([12]; TABLE 9, read-out: RL (IC50)): 4.99
- pIC50 ([12]; Table 14, RL human non-Hodgkin's lymphoma B cell line, read-out: RL (IC50)): 4.99

More lines, now with the values ahead:

- JAK3 (IC50, nM) [1]: E (E: >1000 nM to ≤ 0,000 nM)
SMILES: CN(CCNc1ncnc2[nH]ccc12)S(=O)(=O)c1c(F)c(F)c(F)c(F)c1F [Compound 5-11, N-(2-((7H-pyrrolo[2,3-d]pyrimidin-4-yl)amino)ethyl)-2,3,4,5,6-pentafluoro-N-methylbenzenesulfonamide]

- JAK3 (IC50, nM) [1]: E (E: >1000 nM to ≤ 0,000 nM)
SMILES: O=S(=O)(NCCNc1ncnc2[nH]ccc12)c1c(F)c(F)c(F)c(F)c1F [Compound 5-10, N-(2-((7H-pyrrolo[2,3-d]pyrimidin-4-yl)amino)ethyl)-2,3,4,5,6-pentafluorobenzene sulfonamide]

- pIC50 ([2]; Table 7): 8.00 to 10.00
SMILES: Nc1ncnc2c1c(-c1ccc(Oc3ccccc3)cc1)nn2[C@@H]1CCN(S(=O)(=O)c2c(F)c(F)c(F)c(F)c2F)C1 [Compound 5-5, (R)-1-(1-((perfluorophenyl)sulfonyl)pyrrolidin-3-yl)-3-(4-phenoxyphenyl)-1H-pyrazolo[3,4-d]pyrimidin-4-amine]

- enzyme activity after washout [7]: recovered all of its activity
SMILES: O=C(c1ccc(Oc2ccccc2)cc1Cl)c1c[nH]c2ncnc(N[C@@H]3CC[C@@H](CO)OC3)c12 [ARQ-531]

- pIC50 [8]: 8.00 to 10.00
- pIC50 [9]: 6.52 to 8.00
- pIC50 ([2]; Table 8): 6.00 to 7.00
- Percent residual BTK after 24 hours with test compound (5 μM) [10]: 75%
SMILES: COCCOc1ccc(Nc2ncc(F)c(Nc3cccc(NS(=O)(=O)c4c(F)c(F)c(F)c(F)c4F)c3)n2)cc1 [Compound 5-15, 2,3,4,5,6-pentafluoro-N-(3-((5-fluoro-2-((4-(2-methoxyethoxy)phenyl)amino)pyrimidin-4-yl)amino)phenyl)benzenesulfonamide]

- pIC50 [8]: 5.70 to 6.52
- pIC50 [9]: 5.70 to 6.52
- Percent residual BTK after 24 hours with test compound (5 μM) [10]: 63%
SMILES: COCCOc1ccc(Nc2ncc(F)c(NCCCNS(=O)(=O)c3c(F)c(F)c(F)c(F)c3F)n2)cc1 [Compound 5-7, 2,3,4,5,6-pentafluoro-N-(3-((5-fluoro-2-((4-(2-methoxyethoxy)phenyl)amino)pyrimidin-4-yl)amino)propyl)benzenesulfonamide]

- JAK3 (IC50, nM) [1]: E (E: >1000 nM to ≤ 0,000 nM)
SMILES: C[C@H]1CC[C@@H](Nc2ncnc3[nH]ccc23)CN1S(=O)(=O)c1c(F)c(F)c(F)c(F)c1F [Compound 5-8, N-((3R,6S)-6-methyl-1-((perfluorophenyl)sulfonyl)piperidin-3-yl)-7H-pyrrolo[2,3-d]pyrimidin-4-amine]
